# Test results published in patent US20250312349A1, “COMPOSITION AND METHODS OF TREATING INTRACELLULAR PATHOGEN INFECTION” (UNIVERSITY HOSPITALS CLEVELAND MEDICAL CENTER, priority 2024, published 2025).
# Tests used:
# Lek and Fyn in T cells = conditions: cited from earlier work
# T. gondii [1] = conditions: mice with ocular and cerebral toxoplasmosis, dependent on Beclin 1; cited from earlier work
# T. gondii [2] = assay: In vitro infection of mammalian cells with T. gondii tachyzoites, counted by light microscopy; type: cell-based, Toxoplasma gondii; conditions: CHO cells, 0.3 μM or 1 μM, 2 or 24 hours
# Protocol: Chinese Hamster Ovary (CHO; a gift from Cathleen Carlin, Case Western Reserve University), human retinal pigment epithelial (RPE) cells (ARPE-19; American Type Culture Collection, ATCC, Manassas, VA), and mouse endothelial […]) transduced with Src shRNA or control encoding lentiviral vectors were cultured in complete media. Mouse brain endothelial cells expressing WT or DN EGFR were isolated as described. Endothelial cells were cultured in medium containing Endothelial Cell Growth Supplement (ECGS; Sigma-Aldrich, St Louis, MO). Mammalian cells were infected with tachyzoites of the RH or PTG stains of T. gondii; RH strain was used unless otherwise indicated. Cells were fixed at 2 hours or 24 hours followed by staining using Hema 3 Manual Staining System (Fisherbrand, Hampton, NH). At least 100 to 200 cells per monolayer were counted by examining a minimum of 5 random areas per monolayer. The percentage of infected cells, tachyzoites and vacuoles per 100 cells, and tachyzoites per vacuole were counted using light microscopy. Three independent experiments were performed. Saracatinib, Gefitinib (LC Laboratories, Woburn, MA) and lysosomal inhibitors leupeptin and pepstatin (10 μM; Millipore Sigma, Burlington, MA) were used in specified experiments. Each cell monolayer was generated and infected independently.
structure (smiles),measurement,setting,value
"Cc1nc(Nc2ncc(C(=O)Nc3c(C)cccc3Cl)s2)cc(N2CCN(CCO)CC2)n1.O [Dasatinib, N-(2-chloro-6-methylphenyl)-2-[[6-[4-(2-hydroxyethyl)-1-piperazinyl]-2-methyl-4-pyrimidinyl]amino]-5-thiazole carboxamide monohydrate]",IFN-γ production by T cells,Lek and Fyn in T cells,impaired
same,activity of Lek and Fyn in T cells,Lek and Fyn in T cells,reduced
COc1cc2ncnc(Nc3ccc(F)c(Cl)c3)c2cc1OCCCN1CCOCC1 [Gefitinib],parasite load and histopathology in the eye and brain,T. gondii [1],partial reduction
Cc1ccc(NC(=O)c2ccc(CN3CCN(C)CC3)cc2)cc1Nc1nccc(-c2cccnc2)n1 [Imatinib],"parasite survival (infected cells, tachyzoites per 100 cells)",T. gondii [2],No significant difference
